pIC50, pKi: −log10 of the molar value. Read-outs that look alike come from different tables or passages of the source.
Experiments:
[1] = target: recombinant human SOS1 polypeptide (amino acids 560-1049) (Homo sapiens (Human), UniProt Q07889); assay: biochemical; type: binding; settings: HTRF displacement, Cy5 labelled tracer, Morrison equation for competitive binding; read-out: Ki, Inhibition of Labeled Tracer Binding to SOS1
Procedure: The ability of a compound of Formula (I) to bind to SOS1 was measured using a HTRF displacement assay. […] After a 1-hour incubation at room temperature, the HTRF signal was measured using Clairostar plate reader (BMG Labtech) according to the manufacturer's instructions. Excitation filter EX-TR was used, and emission 1 was detected at 650-610 nm and emission 2 detected at 620-610 nm. The HTRF ratio was calculated using the formula: [emission 1/emission 2]*10000.
Background signals were calculated from well with a 10 μM inhibitor, known to inhibit 100% at that concentration. The background subtracted signals were converted to % binding relative to DMSO controls. Data were analyzed using XLFIT software (IDBS) using a Morrison equation for competitive binding and Ki's were generated compound of Formula (I).

pERK in MKN1 cells = assay: cells; type: cell-based
[2] = Homo sapiens, MKN-1, pERK inhibition, In-Cell Western, MKN1 or H358 cells (Table 24 does not say which), 0.5-1 hour incubation, read-out: IC50

Chain of recombinant human SOS1 polypeptide (amino acids 560-1049) (Q07889 560-1049): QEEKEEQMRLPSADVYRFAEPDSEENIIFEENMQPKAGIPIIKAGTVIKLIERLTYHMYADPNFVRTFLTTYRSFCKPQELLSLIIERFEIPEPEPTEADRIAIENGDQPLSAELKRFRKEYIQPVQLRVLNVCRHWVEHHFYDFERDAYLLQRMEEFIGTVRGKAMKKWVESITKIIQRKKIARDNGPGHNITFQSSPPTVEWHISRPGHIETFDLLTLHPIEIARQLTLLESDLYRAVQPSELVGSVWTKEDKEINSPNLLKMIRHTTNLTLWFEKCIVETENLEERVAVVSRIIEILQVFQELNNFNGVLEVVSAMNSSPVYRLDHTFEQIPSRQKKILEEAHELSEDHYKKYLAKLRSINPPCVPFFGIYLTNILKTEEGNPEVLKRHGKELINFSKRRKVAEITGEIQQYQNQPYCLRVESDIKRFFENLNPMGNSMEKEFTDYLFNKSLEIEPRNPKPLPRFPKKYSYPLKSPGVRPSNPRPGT

Row | Molecule | pKi [1] | pIC50 (pERK in MKN1 cells; [2]) | also measured
1 | Cc1nnc(N[C@H](C)c2cc(N)cc(C(F)(F)F)n2)c2cc(N3CC(C)(O)C3)ccc12 [Example 16-10, (R)-1-(4-((1-(4-amino-6-(trifluoromethyl)pyridin-2-yl)ethyl)amino)-1-methylphthalazin-6-yl)-3-methylazetidin-3-ol] | 7.09 | 6.04 | –
2 | Cc1c(C#N)cc(F)cc1[C@@H](C)Nc1nnc(C)c2cnc(N3CCC(C)(N(C)C)CC3)cc12 [Example 12-104] | 8.21 | 7.04 | –
3 | Cc1c(C#N)cccc1[C@@H](C)Nc1nnc(C)c2cnc(N3C[C@H]4CC[C@@H]3CN4CC(F)(F)F)cc12 [Example 12-76] | 8.97 | 7.25 | –
4 | Cc1nnc(N[C@H](C)c2cccc(F)c2F)c2cc(N3CC(C)(O)C3)ncc12 [Example 12-56] | 7.51 | 6.52 | –
5 | Cc1c([C@@H](C)Nc2nnc(C)c3ccc(N4CC(C)(N(C)C)C4)cc23)cccc1C(F)(F)F [Example 10-66, (R)-7-(3-(dimethylamino)-3-methylazetidin-1-yl)-4-methyl-N-(1-(2-methyl-3-(trifluoromethyl)phenyl)ethyl)phthalazin-1-amine] | 9.11 | 6.97 | –
6 | Cc1cc(F)ccc1[C@@H](C)Nc1nnc(C)c2cnc(N3CC(C)(N(C)C)C3)cc12 [Example 12-124] | 7.19 | 6.07 | –
7 | Cc1c([C@@H](C)Nc2nnc(C)c3cnc(N4CCC(C)(O)CC4)cc23)cccc1C(F)(F)F [Example 12-7] | 9.40 | 7.18 | –
8 | Cc1c([C@@H](C)Nc2nnc(C)c3cnc(N4C[C@H](C)O[C@@H](C)C4)cc23)cccc1C(F)(F)F [Example 12-6] | 9.06 | 6.28 | –
9 | Cc1c([C@@H](C)Nc2nnc(C)c3ccc(O[C@H]4CCN(C)C4)cc23)cccc1C(F)(F)F [Example 7-5, 4-methyl-N-((R)-1-(2-methyl-3-(trifluoromethyl)phenyl)ethyl)-7-(((S)-1-methylpyrrolidin-3-yl)oxy)phthalazin-1-amine] | 9.09 | 6.96 | –
10 | Cc1c([C@@H](C)Nc2nnc(C)c3cnc(N4CCN5CCOC[C@@H]5C4)cc23)cccc1C(F)(F)F [Example 12-14] | 9.26 | 7.77 | –
11 | Cc1c([C@@H](C)Nc2nnc(C)c3cnc(N4C[C@@H]5C[C@H]4CO5)cc23)cccc1C(F)(F)F [Example 12-8] | 8.94 | 7.42 | –
12 | Cc1nnc(N[C@H](C)c2cc(N)cc(C(F)(F)F)n2)c2cc(N3CC4CC(C3)O4)ncc12 [Example 16-13, N-((R)-1-(4-amino-6-(trifluoromethyl)pyridin-2-yl)ethyl)-7-(6-oxa-3-azabicyclo[3.1.1]heptan-3-yl)-4-methylpyrido[3,4-d]pyridazin-1-amine] | 7.59 | < 5.00 | –
13 | CNCc1c(F)cccc1-c1ccc([C@@H](C)Nc2nnc(C)c3cnc(N4CCOCC4)cc23)s1 [Example 6-13, (R)-N-(1-(5-(3-fluoro-2-((methylamino)methyl)phenyl)thiophen-2-yl)ethyl)-4-methyl-7-morpholinopyrido[3,4-d]pyridazin-1-amine] | 9.54 | 7.70 | –
14 | Cc1c(C#N)cccc1[C@@H](C)Nc1nnc(C)c2cnc(N3CCN(C(=O)C4CC4)CC3)cc12 [Example 11-6, (R)-3-(1-((7-(4-(cyclopropanecarbonyl)piperazin-1-yl)-4-methylpyrido[3,4-d]pyridazin-1-yl)amino)ethyl)-2-methylbenzonitrile] | 9.38 | 7.26 | –
15 | Cc1c([C@@H](C)Nc2nncc3ccc(N4CC(C(=O)N(C)C)C4)cc23)cccc1C(F)(F)F [Example 1-24, (R)-N,N-dimethyl-1-(4-((1-(2-methyl-3-(trifluoromethyl)phenyl)ethyl)amino)phthalazin-6-yl)azetidine-3-carboxamide] | – | 7.60 | –
16 | Cc1c([C@@H](C)Nc2nncc3ccc(OC4CC5CCC(C4)N5C)cc23)cccc1C(F)(F)F (stereo partly drawn) [Example 2-10, N-((R)-1-(2-methyl-3-(trifluoromethyl)phenyl)ethyl)-7-((8-methyl-8-azabicyclo[3.2.1]octan-3-yl)oxy)phthalazin-1-amine] | – | 6.65 | –
17 | 4-methyl-N—((R)-1-(5-(2-((methylamino)methyl(phenyl)thiophen-2-yl)ethyl)-7-(((S)-tetrahydrofuran-3-yl)oxy)phthalazin-1-amine [Example 7-1] | – | – | pIC50 (pERK in MKN1 cells; read-out: IC50): 7.10
18 | C[C@@H](Nc1nncc2ccc(N3CCOCC3)cc12)c1cc(-c2ccccc2CN(C)C)cs1 [Example 2-1, (R)—N-(1-(4-(2-((dimethylamino)methyl)phenyl)thiophen-2-yl)ethyl)-7-morpholinophthalazin-1-amine] | – | 6.51 | –

Row | Molecule | pKi [1] | pIC50 (pERK in MKN1 cells; [2]) | also measured
19 | Cc1c([C@@H](C)Nc2nncc3ccc(N4CCC5C(CCN5C)C4)cc23)cccc1C(F)(F)F (stereo partly drawn) [Example 1-35, N-((R)-1-(2-methyl-3-(trifluoromethyl)phenyl)ethyl)-7-(1-methyloctahydro-5H-pyrrolo[3,2-c]pyridin-5-yl)phthalazin-1-amine] | – | 6.91 | –
20 | Cc1cc(C)n(-c2ccc3c(C)nnc(N[C@H](C)c4cccc(C(F)(F)F)c4C)c3c2)n1 [Example 10-14, (R)-7-(3,5-dimethyl-1H-pyrazol-1-yl)-4-methyl-N-(1-(2-methyl-3-(trifluoromethyl)phenyl)ethyl)phthalazin-1-amine] | – | 5.94 | –
21 | COc1nnc(N[C@H](C)c2cccc(C(F)(F)F)c2C)c2cc(N3CCNCC3)ccc12 [Example 9-1, (R)-4-methoxy-N-(1-(2-methyl-3-(trifluoromethyl)phenyl)ethyl)-7-(piperazin-1-yl)phthalazin-1-amine] | – | < 5.00 | –
22 | Cc1c([C@@H](C)Nc2nncc3ccc(N4CCCN(C)CC4)cc23)cccc1C(F)(F)F [Example 1-29, (R)-7-(4-methyl-1,4-diazepan-1-yl)-N-(1-(2-methyl-3-(trifluoromethyl)phenyl)ethyl)phthalazin-1-amine] | – | 7.15 | –
23 | Cc1c([C@@H](C)Nc2nnc(C)c3ccc(C4CCNCC4)cc23)cccc1C(F)(F)F [Example 10-1, (R)-4-methyl-N-(1-(2-methyl-3-(trifluoromethyl)phenyl)ethyl)-7-(piperidin-4-yl)phthalazin-1-amine] | – | – | pIC50 (pERK in MKN1 cells; Homo sapiens, MKN-1): 6.74
24 | Cc1nnc(N[C@H](C)c2ccc(Cl)cc2Cl)c2cc(N3CCNCC3)ccc12 [Example 10-21, (R)-N-(1-(2,4-dichlorophenyl)ethyl)-4-methyl-7-(piperazin-1-yl)phthalazin-1-amine] | – | 6.35 | –
25 | Cc1c([C@@H](C)Nc2nncc3ccc(N4CCC5(CCCN(C)C5)C4)cc23)cccc1C(F)(F)F (stereo partly drawn) [Example 1-34, N-((R)-1-(2-methyl-3-(trifluoromethyl)phenyl)ethyl)-7-(7-methyl-2,7-diazaspiro[4.5]decan-2-yl)phthalazin-1-amine] | – | 6.92 | –
26 | Cc1c([C@@H](C)Nc2nncc3ccc(N4CCN(C)C(=O)C4)cc23)cccc1C(F)(F)F [Example 1-30, (R)-1-methyl-4-(4-((1-(2-methyl-3-(trifluoromethyl)phenyl)ethyl)amino)phthalazin-6-yl)piperazin-2-one] | – | 7.10 | –
27 | Cc1c([C@@H](C)Nc2nncc3ccc(N4CCCC(N(C)C)C4)cc23)cccc1C(F)(F)F (stereo partly drawn) [Example 1-36, 7-(3-(dimethylamino)piperidin-1-yl)-N-((R)-1-(2-methyl-3-(trifluoromethyl)phenyl)ethyl)phthalazin-1-amine] | – | 6.90 | –
28 | Cc1c([C@@H](C)Nc2nncc3ccc(N4CCCC(N5CCC5)C4)cc23)cccc1C(F)(F)F (stereo partly drawn) [Example 1-49, 7-(3-(azetidin-1-yl)piperidin-1-yl)-N-((R)-1-(2-methyl-3-(trifluoromethyl)phenyl)ethyl)phthalazin-1-amine] | – | 6.37 | –
29 | Cc1c([C@@H](C)Nc2nncc3ccc(N4CCCCC(N(C)C)C4)cc23)cccc1C(F)(F)F (stereo partly drawn) [Example 1-50, 7-(3-(dimethylamino)azepan-1-yl)-N-((R)-1-(2-methyl-3-(trifluoromethyl)phenyl)ethyl)phthalazin-1-amine] | – | 6.34 | –
30 | Cc1c([C@@H](C)Nc2nnc(C)c3cnc(N4C[C@@H](C)O[C@@H](C)C4)cc23)cccc1C(F)(F)F [Example 12-4] | – | 6.43 | –
31 | Cc1c([C@@H](C)Nc2nncc3ccc(N4CCOC5(CCOC5)C4)cc23)cccc1C(F)(F)F (stereo partly drawn) [Example 1-41, N-((R)-1-(2-methyl-3-(trifluoromethyl)phenyl)ethyl)-7-(2,6-dioxa-9-azaspiro[4.5]decan-9-yl)phthalazin-1-amine] | – | 6.71 | –
32 | Cc1c([C@@H](C)Nc2nncc3ccc(N4CCC5(CCN(C)C5)C4)cc23)cccc1C(F)(F)F (stereo partly drawn) [Example 1-39, N-((R)-1-(2-methyl-3-(trifluoromethyl)phenyl)ethyl)-7-(7-methyl-2,7-diazaspiro[4.4]nonan-2-yl)phthalazin-1-amine] | – | 6.77 | –
33 | Cc1c([C@@H](C)Nc2nnc(CN)c3ccc(N4CCOCC4)cc23)cccc1C(F)(F)F [Example 14-2, (R)-4-(aminomethyl)-N-(1-(2-methyl-3-(trifluoromethyl)phenyl)ethyl)-7-morpholinophthalazin-1-amine] | – | – | pIC50 (pERK in MKN1 cells; Homo sapiens, MKN-1, pERK inhibition, In-Cell Western, MKN1 or H358 cells (Table 24 does not say which), 0.5-1 hour incubation): 6.86
34 | Cc1c([C@@H](C)Nc2nncc3ccc(N4CCC5C(CCCN5C)C4)cc23)cccc1C(F)(F)F (stereo partly drawn) [Example 1-42, N-((R)-1-(2-methyl-3-(trifluoromethyl)phenyl)ethyl)-7-(1-methyloctahydro-1,6-naphthyridin-6(2H)-yl)phthalazin-1-amine] | – | 6.70 | –
35 | Cc1c([C@@H](C)Nc2nnc(C)c3ccc(-n4ncc5c4CNC5)cc23)cccc1C(F)(F)F [Example 10-15, (R)-7-(5,6-dihydropyrrolo[3,4-c]pyrazol-1(4H)-yl)-4-methyl-N-(1-(2-methyl-3-(trifluoromethyl)phenyl)ethyl)phthalazin-1-amine] | – | 6.07 | –
36 | Cc1c([C@@H](C)Nc2nncc3ccc(OC4CCN(C)C4)cc23)cccc1C(F)(F)F (stereo partly drawn) [Example 2-7, N-((R)-1-(2-methyl-3-(trifluoromethyl)phenyl)ethyl)-7-((1-methylpyrrolidin-3-yl)oxy)phthalazin-1-amine] | – | 6.85 | –

From patent US11702418B2, “SOS1 inhibitors” (priority 2019, dated 2023)
